According to patent publication US20050014215A1, “Method and medium for the detecting/identifying microorganisms with esterase and/or r osidase and/or peptidase and/or sulfatase and/or phosphatase activity” (priority 2000, published 2005):

System: Listeria monocytogenes 23
Test: Colony coloration on fresh and stored media, Example 10 (6-chloro-3-indolyl-β-N-acetylglucosaminide, Columbia)
Assay type: cell-based
Design: key to intensity of coloration (arbitrary scale): 0: no activity; 0.1: trace of coloration; 0.5: very pale coloration; 1: distinct coloration of low intensity; 2: clear coloration of medium intensity; 3: intense coloration; 4: very intense coloration; —: absence of coloration or intensity; key to color: M: magenta; —: colorless
Description: Two stock solutions of substrate were prepared, one having a concentration of 50 g/l in DMF and the other having a concentration of 50 g/l in a mixture of DMF (40%) and Tween® 20 (60%). A volume corresponding to a final concentration of 175 mg/l of substrate was then added to a supercooled gelled medium, namely Columbia medium not supplemented with blood. […] After three weeks, six weeks, nine weeks and twelve weeks, two media like those described above were prepared for immediate use.
Microorganisms originating from the Applicant's collection were inoculated from a 0.5 McFarland suspension, by isolation in three quadrants, onto the two media prepared for immediate use and the two media stored at +4° C. The dishes were incubated at 37° C. for 48 hours. The colonies formed were examined visually after 24 and 48 hours of incubation. The coloration of these colonies and the intensity of this coloration were noted.

[1] = IT 24 h, fresh medium, DMF Tween 20, 6-week comparison
[2] = IT 24 h, fresh medium, DMF Tween 20, 9-week comparison
[3] = IT 24 h, fresh medium, DMF Tween 20, 12-week comparison
[4] = IT 24 h, fresh medium, DMF, 6-week comparison
[5] = IT 24 h, fresh medium, DMF, 9-week comparison
[6] = IT 24 h, fresh medium, DMF, 12-week comparison
[7] = IT 24 h, medium stored for 6 weeks at +4° C., DMF
[8] = IT 24 h, medium stored for 6 weeks at +4° C., DMF Tween 20
[9] = IT 24 h, medium stored for 9 weeks at +4° C., DMF
[10] = IT 24 h, medium stored for 9 weeks at +4° C., DMF Tween 20
[11] = IT 24 h, medium stored for 12 weeks at +4° C., DMF Tween 20
[12] = IT 48 h, fresh medium, DMF Tween 20, 6-week comparison
[13] = IT 48 h, fresh medium, DMF Tween 20, 9-week comparison
[14] = IT 48 h, fresh medium, DMF Tween 20, 12-week comparison
[15] = IT 48 h, fresh medium, DMF, 6-week comparison
[16] = IT 48 h, fresh medium, DMF, 9-week comparison
[17] = IT 48 h, fresh medium, DMF, 12-week comparison
[18] = IT 48 h, medium stored for 6 weeks at +4° C., DMF
[19] = IT 48 h, medium stored for 6 weeks at +4° C., DMF Tween 20
[20] = IT 48 h, medium stored for 9 weeks at +4° C., DMF
[21] = IT 48 h, medium stored for 9 weeks at +4° C., DMF Tween 20
[22] = IT 48 h, medium stored for 12 weeks at +4° C., DMF Tween 20

CC(=O)N[C@H]1[C@H](Oc2c[nH]c3cc(Cl)ccc23)O[C@H](CO)[C@@H](O)[C@@H]1O
color [1]: M
intensity of coloration (arbitrary scale) [1]: 2
color [2]: M
intensity of coloration (arbitrary scale) [2]: 2
color [3]: M
intensity of coloration (arbitrary scale) [3]: 2
color [4]: M
intensity of coloration (arbitrary scale) [4]: 2
color [5]: M
intensity of coloration (arbitrary scale) [5]: 2
color [6]: M
intensity of coloration (arbitrary scale) [6]: 2
color [7]: M
intensity of coloration (arbitrary scale) [7]: 1
color [8]: M
intensity of coloration (arbitrary scale) [8]: 2
color [9]: M
intensity of coloration (arbitrary scale) [9]: 0.5
color [10]: M
intensity of coloration (arbitrary scale) [10]: 1
color (IT 24 h, medium stored for 12 weeks at +4° C., DMF): M
color [11]: M
intensity of coloration (arbitrary scale) [11]: 1
color [12]: M
intensity of coloration (arbitrary scale) [12]: 3
color [13]: M
intensity of coloration (arbitrary scale) [13]: 3
color [14]: M
intensity of coloration (arbitrary scale) [14]: 3
color [15]: M
intensity of coloration (arbitrary scale) [15]: 3
color [16]: M
intensity of coloration (arbitrary scale) [16]: 3
color [17]: M
intensity of coloration (arbitrary scale) [17]: 3
color [18]: M
intensity of coloration (arbitrary scale) [18]: 2
color [19]: M
intensity of coloration (arbitrary scale) [19]: 3
color [20]: M
intensity of coloration (arbitrary scale) [20]: 0.5
color [21]: M
intensity of coloration (arbitrary scale) [21]: 2
color (IT 48 h, medium stored for 12 weeks at +4° C., DMF): M
color [22]: M
intensity of coloration (arbitrary scale) [22]: 2
